The results in this text go back to patent US11497206B2, “Cell cryopreservation protective composition and use thereof” (Tianjin University, priority 2016, dated 2022).

One data set relates to rabbit blood. Nature of the data set: Recovery survival rate of blood after cryopreservation in liquid nitrogen, hemolysis by microplate reader. The data set is classed as cell-based. Here is the method: (§1) (1) The respective cell cryopreservation protective solutions (consisting merely of PBS and the effective ingredients for cryopreservation) were prepared according to the following Table 9; (2) about 1×10^7 sheep blood cells or 20 μL rabbit blood was taken and added into about 1.5 mL to 1.8 mL of the cell cryopreservation protective solutions, and the suspensions were put into suitable freezing tubes and directly placed in liquid nitrogen for cryopreservation; (3) after cryopreservation, the cells were thawed and recovered at 37° C.; the survival rates were investigated by using a microplate reader (trademark: TECAN, model: […] 200 PRO) to determine the hemolysis in each sample, and the method for determining hemolysis is as follows: The recovered samples, a sample of PBS and a sample of water were placed in a centrifuge for centrifugation (2000 r/min, 10 min), and thereafter the supernatants were taken; the light transmittance thereof was measured using the microplate reader and the survival rates of the blood cells were calculated.

Data set [1] concerns sheep blood cells. Nature of the data set: Recovery survival rate of blood cells after cryopreservation in liquid nitrogen, hemolysis by microplate reader. Format: cell-based. Here is the method: as §1
The test system of data set [2] is sheep blood cells. Description: Influence of washing operation on survival rate of blood cells after 24 h immersion. As to conditions: sheep blood cells immersed 24 h at 37° C., diluted 2 folds with PBS, washed by centrifugation (FIG. 11).
Setting [3] is: effective ingredient 4 mass % in PBS.
The mark [4] stands for this setting: effective ingredient 5 mass % in PBS.
Where [5] appears, read: effective ingredient 6 mass % in PBS.
[6] abbreviates: effective ingredient 1 mass % in PBS.
[7] abbreviates: effective ingredient 2 mass % in PBS.
[8] abbreviates: effective ingredient 3 mass % in PBS.
Where [9] appears, read: effective ingredient 40 mass % in PBS.

Where a name gives a salt, the structure may show the parent alone.

For the compound `C[N+](C)(C)CC(=O)[O-]` [Betaine, trimethylammonium acetate], the “Recovery cell survival rate” value in the data set with rabbit blood (setting [3]) turned out to be 55.2%; with rabbit blood (setting [4]) it was 75.1%; with rabbit blood (setting [5]), 85.4%; with rabbit blood (effective ingredient 15 mass % in PBS), 89.0%; in the data set with sheep blood cells [1] (setting [6]), 25.4%; in the data set with sheep blood cells [1] (setting [7]) it was 44.6%. Besides, the “Recovery cell survival rate” value worked out at 49.3% with sheep blood cells [1] (setting [8]), 64.8% in the data set with sheep blood cells [1] (setting [3]), 70.6% with sheep blood cells [1] (setting [4]) and 88.1% in the data set with sheep blood cells [1] (setting [5]). For the same compound, the “Survival rates of blood cells before and after washing” value in the data set with sheep blood cells [2] is reported as “not affected”.

For the compound `C=CC(=O)NCCC[N+](C)(C)CCC(=O)[O-]` [Carboxybetaine (meth)acrylamide, (3-acryloylaminopropyl)-(2-carboxyethyl)-dimethylammonium], the figures for the “Recovery cell survival rate” value with rabbit blood (setting [5]) and in the data set with sheep blood cells [1] (setting [3]) were 65.1% and 71.3%, respectively.

`C[S+](C)[O-]` [DMSO, Dimethyl sulfoxide]: the “Recovery cell survival rate” value in the data set on sheep blood cells [1] (setting [6]) turned out to be 8.9%; in the data set with sheep blood cells [1] (setting [7]) it was 24.4%; with sheep blood cells [1] (setting [8]), 32.4%; in the data set on sheep blood cells [1] (setting [3]), 44.4%; in the data set with sheep blood cells [1] (setting [4]) it was 57.0%; in the data set with sheep blood cells [1] (setting [5]), 40.8%.

As to `OCC(O)CO` [Glycerol], the “Recovery cell survival rate” value with rabbit blood (setting [9]) was determined as 32.6%; with sheep blood cells [1] (setting [6]) it was 21.7%; in the data set on sheep blood cells [1] (setting [7]), 36.5%; in the data set on sheep blood cells [1] (setting [8]), 43.5%; with sheep blood cells [1] (setting [3]) it was 31.8%; in the data set with sheep blood cells [1] (setting [4]) it was 8.8%. Also, the “Recovery cell survival rate” value with sheep blood cells [1] (setting [5]) turned out to be 14.4%; in the data set with sheep blood cells [1] (effective ingredient 10 mass % in PBS), 35.8%; in the data set on sheep blood cells [1] (setting [9]), 48.0%.

As for `C[N+](C)(C)C[C@H](O)CC(=O)[O-]` [L-carnitine, 3-carboxy-2-hydroxy-N,N,N-trimethyl-1-propanaminium inner salt (2R)], the “Recovery cell survival rate” value was 84.3% in the data set on rabbit blood (setting [5]) and 84.0% in the data set with sheep blood cells [1] (setting [5]).

As to `C=C(C)C(=O)OCCOP(=O)([O-])OCC[N+](C)(C)C` [Phosphorylcholine derivative, 2-(methacryloyloxy)ethyl-2-(trimethylammonio)ethyl phosphate], the “Recovery cell survival rate” value is listed as 73.9% with rabbit blood (setting [5]) and 80.9% in the data set on sheep blood cells [1] (setting [3]).

`C=C(C)C(=O)OCC[N+](C)(C)CCCS(=O)(=O)[O-]` [Sulfobetaine, 3-[dimethyl-[2-(2-methylprop-2-enoyloxy)ethyl]azaniumyl]propane-1-sulfonate]: the “Recovery cell survival rate” value in the data set with rabbit blood (setting [5]) was 73.6%; in the data set with sheep blood cells [1] (setting [3]), 75.6%.
